{"source": "paper PMC7617869", "about": "“Molecular glues that inhibit deubiquitylase activity and inflammatory signaling” (Nature Structural & Molecular Biology, 2025)", "key": {"USP2": {"molecular_target": "T1, USP2 (Homo sapiens, UniProt O75604)", "T1 construct": "His (N, cleaved yes); host or cells: Escherichia coli BL21(DE3)", "T1 sequence (O75604 258-605 limits assumed)": "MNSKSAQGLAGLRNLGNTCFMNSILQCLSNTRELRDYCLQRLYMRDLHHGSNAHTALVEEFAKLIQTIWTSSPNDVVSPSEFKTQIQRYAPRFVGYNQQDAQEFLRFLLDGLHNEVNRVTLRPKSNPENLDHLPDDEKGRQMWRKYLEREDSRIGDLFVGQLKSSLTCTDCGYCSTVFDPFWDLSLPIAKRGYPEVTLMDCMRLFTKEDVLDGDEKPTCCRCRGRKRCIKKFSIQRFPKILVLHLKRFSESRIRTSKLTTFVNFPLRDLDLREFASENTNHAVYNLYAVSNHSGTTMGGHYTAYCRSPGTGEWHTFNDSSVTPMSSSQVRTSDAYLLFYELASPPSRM", "test": "USP2 IQF diubiquitin selectivity assay", "type": "biochemical", "settings": "Fig. 1g, USP2", "description": "BRISC DUB activity was measured at room temperature using 1 nM BRISC and 500 nM IQF diubiquitin K63 substrate (LifeSensors, DU6303) in the presence of DMSO and compounds at 10 μM (final concentrations). Assays were performed in 384-well black flat-bottom low-flange plates (Corning, 35373) in buffer containing 50 mM HEPES–NaOH pH 7.0, 100 mM NaCl, 1 mg ml^−1 BSA, 1 mM DTT and 0.03% v/v Brij-35. Then, 10 μl of twofold concentrated enzyme stock was dispensed, followed by transfer of 200 nl of compounds (1 mM stock) using a 384-pin tool and a 15-min incubation at room temperature. Then, 10 μl of twofold concentrated substrate stock was added and the reaction was monitored by measuring fluorescence intensity (excitation, 540 nm; emission, 580 nm) after 20-min incubation at room temperature and ~50% of substrate was consumed. Orthogonal assays for verification of H20 and P12 hit compounds using USP2 (100 nM) and trypsin (125 nM) were performed in identical conditions.\n(§1) IQF assays were performed in DUB reaction buffer containing 50 mM HEPES–NaOH pH 7.0, 100 mM NaCl, 0.1 mg ml^−1 BSA, 1 mM DTT and 0.03% v/v Brij-35. […] The final concentration of BRISC WT, all BRISC mutants, HsBRISCΔLoop, MmBRISC and DrBRISCΔNΔC was 1 nM. Other enzymes were tested at the following concentrations: 5 nM ARISC (FL), 10 nM CfBRISCΔNΔC, 250 nM AMSH* (ref. [43]), 500 nM USP2 and 1 μM trypsin (Sigma, 9002-07-7). For Michaelis–Menten experiments, 1 nM BRISC with 0–1 μM IQF K63-linked diubiquitin substrate was used. Michaelis–Menten analyses and Lineweaver–Burk plots were calculated using GraphPad Prism (version 9.0).\n(§2) To assess enzymatic activity, BRISC complexes were diluted to concentrations between 1 nM and 50 nM. […] Then, 20-μl enzyme reactions were carried out in 384-well black flat-bottom low-flange plates (Corning, 35373). DUB activity was measured using IQF K63-linked diubiquitin (LifeSensors, DU6303) at 50 nM. Cleaved diubiquitin was monitored by measuring fluorescence intensity (excitation, 544 nm; emission, 575 nm; dichroic mirror, 560 nm). Fluorescence intensity was measured every minute for 30 min at 30 °C. Fluorescence intensity units were plotted against time to generate a linear reaction progress curve, where the initial velocity (V0) corresponds to the gradient of the curve (typically achieved within 15 min). IC50 values were calculated using the GraphPad Prism (version 9.0) built-in dose–response equation for inhibitor concentration versus response (variable slope)."}, "[1]": {"tested_on": "AMSH* (a STAM2–AMSH fusion)", "test": "AMSH* IQF DUB activity assay", "type": "biochemical", "settings": "Fig. 1g, AMSH*", "description": "as §1, §2"}}, "note": "Where “and” joins values, the source holds several entries; their conditions need not be identical. Identical values can stand only once."}
{"smiles": "O=C(NC1C2CNCC21)c1nn(C(=O)c2c(Cl)cccc2Cl)cc1NC(=O)c1c(Cl)cccc1Cl", "note": "(stereo not shown) [FX-171-C]", "values": [{"measurement": "Normalised V0", "setting": "USP2; FX-171-C 0.02 μM", "value": "1.153 and 1.005 and 0.8911"}, {"measurement": "Normalised V0", "setting": "USP2; FX-171-C 0.0399999 μM", "value": "1.181 and 1.054 and 0.8345"}, {"measurement": "Normalised V0", "setting": "USP2; FX-171-C 0.0599997 μM", "value": "1.101 and 1.035 and 0.8564"}, {"measurement": "Normalised V0", "setting": "USP2; FX-171-C 0.0799994 μM", "value": "1.262 and 0.9465 and 0.964"}, {"measurement": "Normalised V0", "setting": "USP2; FX-171-C 0.119998 μM", "value": "1.156 and 1.12 and 1.0155"}, {"measurement": "Normalised V0", "setting": "USP2; FX-171-C 0.199996 μM", "value": "1.162 and 0.9867 and 0.9385"}, {"measurement": "Normalised V0", "setting": "USP2; FX-171-C 0.499975 μM", "value": "1.323 and 0.7865 and 0.9403"}, {"measurement": "Normalised V0", "setting": "USP2; FX-171-C 0.799936 μM", "value": "1.167 and 0.9524 and 0.9376"}, {"measurement": "Normalised V0", "setting": "USP2; FX-171-C 1.25984 μM", "value": "1.254 and 0.9797 and 0.8377"}, {"measurement": "Normalised V0", "setting": "USP2; FX-171-C 1.9996 μM", "value": "1.211 and 0.9571 and 0.9503"}, {"measurement": "Normalised V0", "setting": "USP2; FX-171-C 3.159 μM", "value": "1.329 and 0.7564 and 0.948"}, {"measurement": "Normalised V0", "setting": "USP2; FX-171-C 5.19739 μM", "value": "1.206 and 0.9941 and 0.9284"}, {"measurement": "Normalised V0", "setting": "USP2; FX-171-C 7.99364 μM", "value": "1.269 and 0.9668 and 0.7862"}, {"measurement": "Normalised V0", "setting": "USP2; FX-171-C 12.7839 μM", "value": "1.167 and 1.027 and 0.9175"}, {"measurement": "Normalised V0", "setting": "USP2; FX-171-C 19.96 μM", "value": "1.282 and 0.8934 and 0.9216"}, {"measurement": "Normalised V0", "setting": "USP2; FX-171-C 31.4999 μM", "value": "1.071 and 0.9617 and 0.949"}, {"measurement": "Normalised V0", "setting": "USP2; FX-171-C 50.147 μM", "value": "1.087 and 1.072 and 0.8163"}, {"measurement": "Normalised V0", "setting": "USP2; FX-171-C 79.7601 μM", "value": "1.1 and 0.8638 and 0.912"}, {"measurement": "Normalised V0", "setting": "USP2; FX-171-C 125.99 μM", "value": "1.048 and 0.9793 and 0.8997"}, {"measurement": "Normalised V0", "setting": "USP2; FX-171-C 199.922 μM", "value": "1.047 and 0.829 and 0.8108"}, {"measurement": "Normalised V0", "setting": "[1]; FX-171-C 0.02 μM", "value": "1.102 and 0.9959 and 1.122"}, {"measurement": "Normalised V0", "setting": "[1]; FX-171-C 0.0399999 μM", "value": "1.076 and 0.9687 and 1.118"}, {"measurement": "Normalised V0", "setting": "[1]; FX-171-C 0.0599997 μM", "value": "1.166 and 0.9974 and 1.026"}, {"measurement": "Normalised V0", "setting": "[1]; FX-171-C 0.0799994 μM", "value": "1.155 and 1.046 and 1.034"}, {"measurement": "Normalised V0", "setting": "[1]; FX-171-C 0.119998 μM", "value": "1.236 and 1.107 and 1.142"}, {"measurement": "Normalised V0", "setting": "[1]; FX-171-C 0.199996 μM", "value": "1.177 and 1.065 and 1.2539"}, {"measurement": "Normalised V0", "setting": "[1]; FX-171-C 0.499975 μM", "value": "0.9946 and 0.8997 and 1.162"}, {"measurement": "Normalised V0", "setting": "[1]; FX-171-C 0.799936 μM", "value": "1.22 and 0.8896 and 1.186"}, {"measurement": "Normalised V0", "setting": "[1]; FX-171-C 1.25984 μM", "value": "1.058 and 1.1 and 1.143"}, {"measurement": "Normalised V0", "setting": "[1]; FX-171-C 1.9996 μM", "value": "1.14 and 1.15 and 1.191"}, {"measurement": "Normalised V0", "setting": "[1]; FX-171-C 3.159 μM", "value": "1.081 and 1.064 and 1.2182"}, {"measurement": "Normalised V0", "setting": "[1]; FX-171-C 5.19739 μM", "value": "0.9976 and 1.106 and 1.16"}, {"measurement": "Normalised V0", "setting": "[1]; FX-171-C 7.99364 μM", "value": "1.138 and 1.066 and 1.161"}, {"measurement": "Normalised V0", "setting": "[1]; FX-171-C 12.7839 μM", "value": "1.171 and 0.9747 and 1.21"}, {"measurement": "Normalised V0", "setting": "[1]; FX-171-C 19.96 μM", "value": "0.7795 and 0.741 and 1.28"}, {"measurement": "Normalised V0", "setting": "[1]; FX-171-C 31.4999 μM", "value": "1.112 and 1.039 and 1.002"}, {"measurement": "Normalised V0", "setting": "[1]; FX-171-C 50.147 μM", "value": "1.1142 and 0.9322 and 1.253"}, {"measurement": "Normalised V0", "setting": "[1]; FX-171-C 79.7601 μM", "value": "1.095 and 0.9276 and 1.158"}, {"measurement": "Normalised V0", "setting": "[1]; FX-171-C 125.99 μM", "value": "1.097 and 0.9974 and 1.112"}, {"measurement": "Normalised V0", "setting": "[1]; FX-171-C 199.922 μM", "value": "0.8792 and 0.8896 and 0.9452"}]}
